Experimental data reported in PubChem BioAssay AID179 (DTP/NCI, 2004).
Several values for one entry are separate records, joined by “and”; a condition that tells them apart may be missing. Equal entries are not always repeated. Activity calls are given as the source filed them.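 How the source made its calls: active means compounds giving half or more protection of infected cells from virus-caused growth loss, again on retest; inactive means the rest.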 Where a SMILES comes first, the peptide text is derived from it. The star is where a group is joined. Fmoc = O=C(OCC1c2ccccc2-c2ccccc21)*; Cbz = O=C(OCc1ccccc1)*; OBn = c1ccc(CO*)cc1; tBu = CC(C)(C)*; CH2Cl = ClC*

Tested on: CEM cells HIV-1 protection, formazan growth assay
Assay: NCI AIDS Antiviral Assay
Conditions: for IC50: measured here: growth of uninfected CEM cells
Procedure, shortened: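 Steps: treat uninfected and HIV-1-infected human CEM cells at five drug levels; quantify growth by soluble formazan; retest any compound reaching 50% protection; classify actives from the retest.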

SMILES | EC50 | IC50 | outcome
O=C1c2c([nH]ccc2=O)-c2nccc3c2c1nc1ccccc13 | > 2 µM | 0.603 µM | 
Cc1ccc(N2COc3ccc4ccccc4c3C2)cc1 | > 200 µM | 26.3 µM | 
COC(=O)/C=C/c1cc2c(cc1-c1c(C(=O)O)cc(OC)c(OC)c1OC)OCO2 | > 603 µM | > 603 µM | 
CN(C)c1ccc(/C=C(\NC(=O)c2ccccc2)C(=O)NC(CCC(=O)O)C(=O)O)cc1 (stereo not drawn) | > 50.1 µM | 34.7 µM | 
CC(OC(C)(C)C)C(NC(=O)OCC1c2ccccc2-c2ccccc21)C(=O)NC(Cc1ccccc1)C(=O)OCc1ccccc1 (stereo not drawn) (Fmoc-Thr(tBu)-Phe-OBn; configuration not given here) | > 200 µM | > 200 µM | 
C[C@]12OC[C@H](c3ccccc3)N1C(=O)C1[C@H]2CC12SCCS2 (stereo partly drawn) | > 200 µM | 178 µM | 
Cc1cc(NS(=O)(=O)c2ccc(N=Nc3cc(S(=O)(=O)O)c4ccccc4c3O)cc2)ccc1N=Nc1ccc2cc(S(=O)(=O)O)cc(S(=O)(=O)O)c2c1 |  |  | active
Cc1c(C)c(C)c(-n2c(=O)n(C)c(=O)n2-n2c(=O)n(C)c(=O)n2-c2c(C)c(C)c(C)c(C)c2C)c(C)c1C | > 100 µM | 6.31 µM | 
CCCCCCCCC#CCCCCCCCCCC[C@@H]1C(=O)O[C@H](C)[C@@H]1O (tested in a mixture with another compound) | > 200 µM | 35.5 µM | 
N#C/C(=C\c1ccc(F)cc1)C(=O)O | > 263 µM | > 263 µM | 
CN(N=O)C(=O)N(N)CCCCC(NC(=O)OCc1ccccc1)C(=O)OCc1ccccc1 (stereo not drawn) | > 39.8 µM | > 39.8 µM | 
NNc1c(C(N)=O)c2c(N)ncnc2n1C1OC(CO)C(O)C1O (stereo not drawn) | > 0.2 µM | 0.00912 µM | 
CC(=O)N1CCCN(C)/C1=N/[N+](=O)[O-] | > 200 µM | > 200 µM | 
C/C(=N\OCC(O)CNC(C)C)c1ccc2c(c1)NC(=O)CS2 (stereo not drawn) |  |  | inactive
O=C(CC/C(CC(=O)c1ccc(Cl)cc1)=N\O)Nc1cccc(Cl)c1 | > 347 µM | 257 µM | 
CC1(C)O[C@H]2OC(CO)C(N=[N+]=[N-])[C@H]2O1 (stereo partly drawn) | > 200 µM | > 200 µM | 
Cc1cc2c(C)n(Cc3ccc(Cl)cc3Cl)nc2c(C#N)c1C | > 20.9 µM | > 20.9 µM | 
NC(N)=NS(=O)(=O)c1ccc(Nc2c3ccccc3nc3c(C(=O)NCCO)cccc23)cc1 | > 200 µM | 8.91 µM | 
COCCN1C2=CCCCC2=Nc2c(N)nc(N)nc21 |  |  | inactive
NC(=S)N/N=C/C(F)(F)F | > 1450 µM | 79.4 µM | 
CC1(C)CC(Br)(Cc2ccccc2)C(=O)c2ccccc21 (stereo not drawn) | > 200 µM | 7.94 µM | 

SMILES | EC50 | IC50 | outcome
CN1CCC2(CC1)C(=NC1CCCCC1)NC(=O)N2c1ccccc1 | > 200 µM | > 200 µM | 
COc1cccc(/C=N/NC(=O)c2ccccc2[O-])c1[O-].[Cu+2].[OH3+] | > 200 µM | > 200 µM | 
CCN(CCC#N)C(=O)Nc1ccccc1 | > 200 µM | > 200 µM | 
CC1=Nc2nc(=NCCCN(C)C)nc3cccc(n23)N1 | > 200 µM | > 200 µM | 
O=c1oc2ccccc2c(O)c1C(c1ccc(OCc2ccccc2)cc1)c1c(O)c2ccccc2oc1=O | > 200 µM | 30.2 µM | 
CC(C)CC(NC(=O)OCc1ccccc1)C(=O)NC(Cc1ccccc1)C(=O)CCl (stereo not drawn) (Cbz-Leu-Phe-CH2Cl; configuration not given here) | > 20 µM | 1 µM | 
COc1ccc(NC(=O)COC(=O)c2cccc3c(=O)c4ccccc4[nH]c23)cc1 |  |  | inactive
CC1(CN2CCCCC2)COC(c2ccccc2)(c2ccccc2)OC1 | > 200 µM | 29.5 µM | 
Cc1cc2c(C(C)C)c(O)c(O)c(C=Nc3ccccc3)c2c(O)c1-c1c(C)cc2c(C(C)C)c(O)c(O)c(C=Nc3ccccc3)c2c1O | 0.55 µM | 0.562 µM | 
COc1cc([C@H]2Oc3c(OC)cc(/C=C/C(=O)O)cc3[C@@H]2C(=O)O)ccc1O | 120 µM | > 200 µM | 
CC(=O)C1=CCC2c3[nH]c4ccccc4c3CCN2C1 (stereo not drawn) | > 70.8 µM | > 70.8 µM | 
O=C1/C(=C/c2ccccc2)N=C(c2ccccc2)N1n1c(-c2ccccc2)nc2ccccc2c1=O | > 200 µM | 75.9 µM | 
CCC(=O)NCC1(c2c[nH]c3ccccc23)SCCS1 |  |  | inactive
COC1=CC(=O)C2C(C1=O)[C@@H]1c3ccccc3OC(C)(C)[C@H]21 (stereo partly drawn) | > 166 µM | 16.2 µM | 
CC1CC(=O)Nc2ccccc2N1C(=O)C1CC1 (stereo not drawn) | > 200 µM | > 200 µM | 
O=c1ccn([C@@H]2O[C@@H]3COC(c4c(F)cccc4Cl)N(O)[C@@H]3C2O)c(=O)[nH]1 (stereo partly drawn) | > 200 µM | > 200 µM | 
CC(C)(C)c1cc2c(O)c(c1)C(c1ccccc1)c1cc(C(C)(C)C)cc(c1O)Cc1cc(C(C)(C)C)cc(c1O)C(c1ccccc1)c1cc(C(C)(C)C)cc(c1O)C2 (stereo not drawn) | > 50.1 µM | > 50.1 µM | 
COc1ccc(OC)c(CNc2ccc(C(=O)O)cc2)c1 | > 200 µM | > 200 µM | 
Cc1ccccc1-c1nc2ccc(N)nc2nc1N |  |  | inactive
CN1Cc2c(ccc3c2OCO3)C2C(O)Cc3cc4c(cc3C21)OCO4 (stereo not drawn) | > 0.912 µM | 0.234 µM | 
COc1ccc2c(c1)C1Oc3ccccc3CC1CO2 (stereo not drawn) | > 200 µM | 52.5 µM | 

SMILES | EC50 | IC50 | outcome
CCOC(=O)c1nc2ccc(C(F)(F)F)cc2nc1NCc1ccc(OC)c(OC)c1 | > 200 µM | 85.1 µM | 
CC(=O)SCC1OC(n2cc(C)c(=O)[nH]c2=O)CC1O (stereo not drawn) | > 200 µM | > 200 µM | 
Cc1ccc(NC(=O)OCC(COc2ccc(Cl)cc2)OC(=O)Nc2ccc(C)cc2)cc1 (stereo not drawn) | > 15.5 µM | > 15.5 µM | 
C=CCNC(=O)NCCCCC(NC(C)=O)C(=O)NCc1ccccc1 (stereo not drawn) | > 692 µM | > 692 µM | 
COc1cccc(/C=C2\C(=O)N(C(=O)Cc3ccccc3)N=C2C)c1 | > 15.5 µM | > 15.5 µM | 
CC1(C)OC([C@H](O)CO)C([C@H]2NCCS2)O1 (stereo partly drawn) | > 200 µM | > 200 µM | 
CCCCCOCCCCCCCC(=O)O | > 200 µM | 89.1 µM | 
COc1cc(N=Nc2cc(S(=O)(=O)O)cc3cc(S(=O)(=O)O)cc(O)c23)c(C)cc1N=Nc1c(S(=O)(=O)O)cc2cc(Nc3ccccc3)ccc2c1O |  |  | inactive
COP(=O)(OC)C(=O)N1N(c2ccc([N+](=O)[O-])cc2)C(=O)C(C)NC1(NNc1ccc([N+](=O)[O-])cc1)P(=O)(OC)OC (stereo not drawn) | > 107 µM | 56.2 µM | 
OC(CCNC12CC3CC(CC(C3)C1)C2)c1ccccc1 (stereo not drawn) |  |  | inactive
O=c1[nH]c2cc3c(cc2n2cccc12)oc1ccccc13 | > 200 µM | > 200 µM | 
c1ccc(P2c3ccccc3Nc3ccccc32)cc1 | > 200 µM | 61.7 µM | 
C[C@]12CC[C@H](O)CC1=CC[C@@H]1C2CC[C@]2(C)NC(=O)CCC12 (stereo partly drawn) |  |  | inactive
Cc1cccc(C)c1N1C(=O)C(=O)C(c2nc3ccccc3s2)C(=Nc2cccc3c(=O)[nH][nH]c(=O)c23)C1=O (stereo not drawn) |  |  | inactive
c1ccc(CSC(SCc2ccccc2)(c2ccccc2)c2ccccc2)cc1 | > 200 µM | 102 µM and > 100 µM | 
O=c1c(-c2ccccc2)c2oc(c1-c1ccccc1)CS(=O)(=O)CCC2 | > 97.7 µM | 18.6 µM | 
O=C1/C(=C/c2cccs2)NC(=S)N1CN1CCCC(CO)C1 (stereo not drawn) | > 200 µM | 44.7 µM | 
CCc1cc(=O)n(/C(C)=C/c2ccccc2)n1C | > 200 µM | > 200 µM | 
Cc1cc2c(=O)c3ccc(Cl)cc3[nH]c2c(C(=O)O)c1C |  |  | inactive
NC(N)=NCCN1CC2CCC(CC2)C1 | 61.7 µM | 151 µM | 
OCCC(N1CCOCC1)C(O)(c1ccccc1)c1ccccc1 (stereo not drawn) | > 200 µM | > 200 µM | 

SMILES | EC50 | IC50 | outcome
O=C(NCCCCCN1CCC2(CCCCC2)CC1)C(c1ccccc1)C1CCCCC1 (stereo not drawn) | > 200 µM | 5.75 µM | 
CC1CN(C(=O)CN2CCC(CCCCN(C)C)CC2)c2ccccc2NC1=O (stereo not drawn) | > 251 µM | > 251 µM | 
COc1ccc(N=Nc2c(N)nn3cc4c(nc23)-c2ccccc2C4)cc1 | > 200 µM |  | 
CC(=O)Nc1ncc(Sc2ccccc2C(=O)O)s1 | > 200 µM | > 200 µM | 
COc1cc(C2=C(C)[C@@H]3CN(CC=C3c3ccc(Cl)cc3)C2)c(S(=O)(=O)O)cc1OC |  |  | inactive
Cc1cn(C2OCC(CO)C2N=[N+]=[N-])c(=O)[nH]c1=O (stereo not drawn) | > 200 µM | > 200 µM | 
O=Cc1cc(O)c(O)c(O)c1-c1c(C=O)cc(O)c(O)c1O | > 174 µM | 34.7 µM | 
COc1ccc(-n2c(SC(CN3CCOCC3)CN3CCCC3=O)nc3ccccc3c2=O)cc1 (stereo not drawn) | > 200 µM | 56.2 µM | 
CCN(CC)CC(C)(C)C(=O)/C=C/c1ccc(C)cc1 |  |  | inactive
CCOC(=O)c1c(N2CCCC2)ncn(Cc2ccccc2)c1=S | > 200 µM | > 200 µM | 
C/C(Cc1[nH]nc2c1c(=O)oc1ccc3ccccc3c12)=N\N | > 200 µM | 12.6 µM | 
COC(=O)C1=C(C(=O)OC)SC(=Cc2ccccc2C=C2SC(C(=O)OC)=C(C(=O)OC)S2)S1 |  |  | inactive
COC1/C=C/OC2(C)Oc3c(C)c(O)c4c(O)c(cc(OCC(=O)N(C)CC(=O)OC(C)(C)C)c4c3C2=O)NC(=O)/C(C)=C/C=C/C(C)C(O)C(C)C(O)C(C)C(OC(C)=O)C1C (stereo not drawn) | > 200 µM | 28.2 µM | 
COc1ccc(N2C(=O)CC(c3c[nH]c4ccccc34)C2=O)cc1 (stereo not drawn) | > 200 µM | 182 µM | 
CCN(CC)c1nnc(CCCCCCCCc2nnc(N(CC)CC)o2)o1 | > 200 µM | > 200 µM | 
O=C1CCCC2=C(N1)C(=O)C=CC2=O | > 955 µM | 8.71 µM | 
CC(=O)N(/N=C1\CC(c2ccccc2)Oc2ccccc21)C(C)=O (stereo not drawn) | > 200 µM | 102 µM | 
Cc1ccc2c(c1C)C(=O)C1(C2)Cc2ccc3c(c2C1=O)CCC3 (stereo not drawn) | > 100 µM | > 100 µM | 
COC(=O)C(C)(C)OCc1ccc(C2NC(=O)N(c3cccc(Cl)c3)C(=O)N2c2cccc(Cl)c2)cc1 (stereo not drawn) | > 200 µM | 24 µM | 
C=C(Br)CNC(=O)Nc1ccccn1 | > 200 µM | > 200 µM | 
CC(C)(C)[Si](C)(C)OC1C(CC#N)C(CO)OC1n1ccc(=O)[nH]c1=O (stereo not drawn) | > 200 µM | > 200 µM | 
